From US20210186970A1, “SELECTIVE CALCIUM CHANNEL ANTAGONISTS” (Northwestern University, priority 2011, published 2021) come the findings set out here.

The target in data set [1] is Cav1.2 L-type Ca channels (Oryctolagus cuniculus, UniProt P15381). In words: FLIPR Fluo-8 calcium assay, Cav1.2 channel inhibition in HEK293 cells.
The target in data set [2] is T1, Cav1.3 L-type Ca channels (Rattus norvegicus, UniProt P27732).
T1 construct: expressed in transfected cells; host or cells: HEK293
Put plainly: FLIPR Fluo-8 calcium assay, Cav1.3 channel inhibition in HEK293 cells. The class given is cell-based.

Setting [3] is: IC50 (μM) CaV1.2, first library, FLIPR, HEK293, value (±SD).
Where [4] appears, read: IC50 (μM) Cav1.2, Table 4, 12 concentration points (0.1 nM~100 μM) in duplicate.
Where [5] appears, read: IC50 (μM) CaV1.3, first library, FLIPR, HEK293, value (±SD).
Setting [6] is: IC50 (μM) Cav1.3, Table 4, 12 concentration points (0.1 nM~100 μM) in duplicate.
Where [7] appears, read: Table 4, Cav1.3 relative to Cav1.2 from IC50 values.
The mark [8] stands for this setting: first library, ratio of IC50 Cav1.2 to Cav1.3.
Setting [9] is: IC50 (μM) Cav1.2, third library, FLIPR, HEK293, value (±SD).
Where [10] appears, read: IC50 (μM) Cav1.3, third library, FLIPR, HEK293, value (±SD).
Setting [11] is: third library, ratio of IC50 Cav1.2 to Cav1.3.
Where [12] appears, read: IC50 (μM) Cav1.2, second library, FLIPR, HEK293, value (±SD).
The mark [13] stands for this setting: IC50 (μM) Cav1.3, second library, FLIPR, HEK293, value (±SD).
[14] abbreviates: second library, ratio of IC50 Cav1.2 to Cav1.3.
Where [15] appears, read: third library, FLIPR, HEK293, value (±SD), read-out: IC50 (μM) Cav1.3.

Where two headings read alike, the source gives them in different places.

T1 sequence (P27732 whole entry): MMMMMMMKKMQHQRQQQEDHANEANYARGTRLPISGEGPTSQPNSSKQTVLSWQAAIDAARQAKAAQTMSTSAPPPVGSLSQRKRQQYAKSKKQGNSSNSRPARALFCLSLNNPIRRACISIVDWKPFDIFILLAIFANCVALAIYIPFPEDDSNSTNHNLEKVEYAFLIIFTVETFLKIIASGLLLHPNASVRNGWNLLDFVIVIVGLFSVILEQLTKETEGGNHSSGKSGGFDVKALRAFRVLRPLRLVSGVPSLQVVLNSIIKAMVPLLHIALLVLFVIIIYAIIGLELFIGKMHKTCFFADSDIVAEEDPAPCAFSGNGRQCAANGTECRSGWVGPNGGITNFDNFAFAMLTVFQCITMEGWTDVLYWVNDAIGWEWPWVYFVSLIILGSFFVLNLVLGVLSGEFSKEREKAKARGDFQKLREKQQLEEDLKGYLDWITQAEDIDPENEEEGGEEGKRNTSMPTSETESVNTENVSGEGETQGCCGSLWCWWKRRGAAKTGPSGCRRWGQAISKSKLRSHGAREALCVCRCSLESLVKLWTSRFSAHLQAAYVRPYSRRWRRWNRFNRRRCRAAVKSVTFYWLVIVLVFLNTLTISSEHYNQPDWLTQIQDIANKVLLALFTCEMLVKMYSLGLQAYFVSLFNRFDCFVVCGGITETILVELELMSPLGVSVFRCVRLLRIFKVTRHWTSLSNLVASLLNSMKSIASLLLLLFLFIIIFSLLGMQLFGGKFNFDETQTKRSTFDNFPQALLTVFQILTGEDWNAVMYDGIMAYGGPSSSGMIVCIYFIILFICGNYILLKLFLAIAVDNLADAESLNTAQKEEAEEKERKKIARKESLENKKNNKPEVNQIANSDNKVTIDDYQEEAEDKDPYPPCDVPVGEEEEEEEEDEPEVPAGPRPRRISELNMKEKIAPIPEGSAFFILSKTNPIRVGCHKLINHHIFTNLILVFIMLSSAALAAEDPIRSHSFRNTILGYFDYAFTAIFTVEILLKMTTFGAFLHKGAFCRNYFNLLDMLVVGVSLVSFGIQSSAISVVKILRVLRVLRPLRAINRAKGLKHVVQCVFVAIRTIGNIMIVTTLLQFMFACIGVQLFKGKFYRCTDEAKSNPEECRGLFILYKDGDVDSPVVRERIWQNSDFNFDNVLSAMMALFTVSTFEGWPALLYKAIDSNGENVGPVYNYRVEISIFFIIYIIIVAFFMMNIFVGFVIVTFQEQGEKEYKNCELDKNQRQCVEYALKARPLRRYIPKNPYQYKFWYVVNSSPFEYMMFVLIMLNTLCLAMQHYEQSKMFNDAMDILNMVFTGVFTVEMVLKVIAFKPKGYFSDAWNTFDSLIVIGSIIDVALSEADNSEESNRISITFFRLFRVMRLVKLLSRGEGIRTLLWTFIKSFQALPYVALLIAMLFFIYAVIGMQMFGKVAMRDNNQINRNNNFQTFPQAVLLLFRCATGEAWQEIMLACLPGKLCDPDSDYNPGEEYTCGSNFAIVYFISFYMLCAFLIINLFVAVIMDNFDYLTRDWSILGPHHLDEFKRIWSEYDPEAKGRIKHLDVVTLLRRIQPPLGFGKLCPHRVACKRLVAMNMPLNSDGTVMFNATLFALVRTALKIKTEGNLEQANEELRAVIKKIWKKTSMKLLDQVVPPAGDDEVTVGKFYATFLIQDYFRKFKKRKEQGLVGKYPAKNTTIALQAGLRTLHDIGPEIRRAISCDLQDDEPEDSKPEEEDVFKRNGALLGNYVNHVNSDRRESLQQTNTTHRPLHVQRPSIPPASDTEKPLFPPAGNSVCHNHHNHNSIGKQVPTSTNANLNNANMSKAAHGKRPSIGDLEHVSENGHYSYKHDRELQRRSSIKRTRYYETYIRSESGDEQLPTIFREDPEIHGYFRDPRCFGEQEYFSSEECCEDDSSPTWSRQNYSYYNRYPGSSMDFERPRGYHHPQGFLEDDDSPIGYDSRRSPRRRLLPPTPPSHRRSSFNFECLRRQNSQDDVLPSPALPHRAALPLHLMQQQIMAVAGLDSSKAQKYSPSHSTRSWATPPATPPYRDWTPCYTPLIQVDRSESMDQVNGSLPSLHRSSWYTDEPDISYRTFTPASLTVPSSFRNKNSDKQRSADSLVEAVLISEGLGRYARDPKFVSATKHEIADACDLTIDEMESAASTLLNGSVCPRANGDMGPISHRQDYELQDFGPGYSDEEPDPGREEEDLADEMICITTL
T1 sequence (P54284 whole entry partner): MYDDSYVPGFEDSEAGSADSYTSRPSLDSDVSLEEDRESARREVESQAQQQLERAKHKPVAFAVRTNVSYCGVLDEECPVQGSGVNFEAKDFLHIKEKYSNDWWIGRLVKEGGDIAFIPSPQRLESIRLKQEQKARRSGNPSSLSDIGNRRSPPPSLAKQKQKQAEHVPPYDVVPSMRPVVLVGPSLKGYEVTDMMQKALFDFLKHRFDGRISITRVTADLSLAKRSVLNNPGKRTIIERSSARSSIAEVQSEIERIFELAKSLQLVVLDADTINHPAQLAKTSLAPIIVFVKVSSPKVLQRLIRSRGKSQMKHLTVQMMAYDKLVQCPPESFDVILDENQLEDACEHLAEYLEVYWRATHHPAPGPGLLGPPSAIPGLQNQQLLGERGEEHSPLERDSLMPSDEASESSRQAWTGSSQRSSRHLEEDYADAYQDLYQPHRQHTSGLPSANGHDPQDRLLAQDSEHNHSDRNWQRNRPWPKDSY
T1 sequence (P54289 25-956 partner limits assumed): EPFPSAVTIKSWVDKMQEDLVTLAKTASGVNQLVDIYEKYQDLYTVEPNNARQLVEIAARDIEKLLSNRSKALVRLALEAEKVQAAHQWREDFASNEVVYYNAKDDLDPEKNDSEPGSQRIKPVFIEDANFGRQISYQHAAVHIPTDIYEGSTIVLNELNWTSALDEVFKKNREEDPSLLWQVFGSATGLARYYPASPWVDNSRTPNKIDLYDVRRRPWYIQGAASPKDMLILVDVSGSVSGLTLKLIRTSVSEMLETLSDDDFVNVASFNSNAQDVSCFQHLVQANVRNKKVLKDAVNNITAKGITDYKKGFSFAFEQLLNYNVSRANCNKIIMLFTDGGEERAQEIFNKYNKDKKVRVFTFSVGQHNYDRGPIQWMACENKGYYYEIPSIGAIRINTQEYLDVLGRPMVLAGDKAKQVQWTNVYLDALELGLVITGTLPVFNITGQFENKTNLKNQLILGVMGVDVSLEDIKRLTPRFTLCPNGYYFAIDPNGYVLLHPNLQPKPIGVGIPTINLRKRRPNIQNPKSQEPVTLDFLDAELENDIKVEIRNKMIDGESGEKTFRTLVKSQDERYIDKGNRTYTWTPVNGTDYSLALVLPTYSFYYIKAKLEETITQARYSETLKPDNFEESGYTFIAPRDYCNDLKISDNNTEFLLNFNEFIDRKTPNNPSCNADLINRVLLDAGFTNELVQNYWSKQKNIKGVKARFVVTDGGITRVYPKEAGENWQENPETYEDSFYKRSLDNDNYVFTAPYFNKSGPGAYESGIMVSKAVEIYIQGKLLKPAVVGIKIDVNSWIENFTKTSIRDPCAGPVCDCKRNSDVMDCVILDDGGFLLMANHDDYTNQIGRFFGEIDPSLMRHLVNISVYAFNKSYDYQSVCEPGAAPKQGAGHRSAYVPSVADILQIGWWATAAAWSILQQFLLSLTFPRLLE
T1 sequence (P54289 957-1103 partner limits assumed): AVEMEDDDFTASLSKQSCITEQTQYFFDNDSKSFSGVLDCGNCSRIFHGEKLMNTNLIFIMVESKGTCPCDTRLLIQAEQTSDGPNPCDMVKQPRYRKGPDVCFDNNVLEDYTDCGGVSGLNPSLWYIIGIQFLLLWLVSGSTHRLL

`O=C1CC(=O)N(C2CCCC2)C(=O)N1CCCCc1ccccc1` [Compound 2, N-cyclopentyl-N′-(4-phenylbutyl)-pyrimidine-2,4,6-(1H,3H,5H)-trione] gave a melting point of 85 to 87 °C. In data set [1] (setting [3]), the IC50 came out at 43.8 µM. For the same molecule, the IC50 in data set [1] (setting [4]) amounted to 43.8 µM. For the same molecule, the IC50 in data set [2] (setting [5]) came to 1.3 µM. The IC50 in data set [2] (setting [6]) was 1.3 µM. In addition, the Selectivity in data set [2] (setting [7]) is reported as 34. Further, in data set [2] (setting [8]), the Selectivity is 33.7.

The molecule `O=C1CC(=O)N(C2CCCC2)C(=O)N1CCc1cccc(C(F)(F)F)c1` [Compound 7, N-cyclopentyl-N′-(3-thrifluoromethylphenethyl)-pyrimidine-2,4,6-(1H,3H,5H)-trione] displayed a melting point of 97 to 98 °C. Further, the IC50 in data set [1] (setting [4]) was found to be 326 µM. In addition, in data set [1] (setting [9]), the IC50 worked out at 326 µM. For the same molecule, the IC50 in data set [2] (setting [6]) was determined as 1.1 µM. The IC50 in data set [2] (setting [10]) was found to be 1.1 µM. Further, the Selectivity in data set [2] (setting [7]) worked out at 305. Further, in data set [2] (setting [11]), the Selectivity came to 305.4.

Molecule `O=C1CC(=O)N(C2CCCCC2)C(=O)N1CCc1cccc(Br)c1` [Compound 5, N-(3-bromophenethyl)-N′-cyclohexyl-pyrimidine-2,4,6-(1H,3H,5H)-trione] gave a melting point of 154 to 155 °C. Further, the half-inhibitory concentration (IC50) in data set [1] (setting [4]) turned out to be 45.8 µM. For the same molecule, the IC50 in data set [1] (setting [12]) was found to be 45.8 µM. Moreover, the IC50 in data set [2] (setting [6]) is 1.3 µM. For the same molecule, in data set [2] (setting [13]), the IC50 was determined as 1.3 µM. Further, in data set [2] (setting [7]), the Selectivity was determined as 34. The Selectivity in data set [2] (setting [14]) is 34.0.

`O=C1CC(=O)N(C2CCCCC2)C(=O)N1CCc1cccc(C(F)(F)F)c1` [Compound 6, N-cyclohexyl-N′-(3-thrifluoromethylphenethyl)-pyrimidine-2,4,6-(1H,3H,5H)-trione] registered a melting point of 105 to 107 °C. In addition, the IC50 in data set [1] (setting [4]) amounted to 25.8 µM. Also, the IC50 in data set [1] (setting [12]) is 25.8 µM. In addition, the IC50 in data set [2] (setting [6]) came to 1.3 µM. Also, in data set [2] (setting [13]), the IC50 was determined as 1.3 µM. For the same molecule, the Selectivity in data set [2] (setting [7]) is on record as 20. In addition, the Selectivity in data set [2] (setting [14]) is 20.3.

The molecule `O=C1CC(=O)N(C2CCCCC2)C(=O)N1CCc1cccc(Cl)c1` [Compound 3, N-(3-chlorophenethyl)-N′-cyclohexyl-pyrimidine-2,4,6-(1H,3H,5H)-trione] returned a melting point of 153 to 154 °C. In data set [1] (setting [3]), the IC50 was 53.1 µM. For the same molecule, the IC50 in data set [1] (setting [4]) worked out at 53.1 µM. In data set [2] (setting [5]), the IC50 is 1.4 µM. Further, the IC50 in data set [2] (setting [6]) stood at 1.4 µM. The Selectivity in data set [2] (setting [7]) is 38. Moreover, the Selectivity in data set [2] (setting [8]) came to 38.0.

Turning to `O=C1CC(=O)N(CCc2cccc(C(F)(F)F)c2)C(=O)N1CCc1ccc(Cl)cc1` [Compound 20], the IC50 in data set [1] (setting [3]) turned out to be 2.8 µM; in data set [2] (setting [5]) it was 0.4 µM. For the same molecule, in data set [2] (setting [8]), the Selectivity is on record as 6.2.

`O=C1CC(=O)N(C2CCC2)C(=O)N1CCc1ccc(Cl)cc1` [Compound 100]: the figures for the IC50 in data set [1] (setting [9]) and in data set [2] (setting [15]) were 4.9 µM and 1.8 µM, respectively. Moreover, the Selectivity in data set [2] (setting [11]) is 2.8.

For `O=C1CC(=O)N(CCc2ccc(Cl)c(Cl)c2)C(=O)N1CCc1ccc(Cl)cc1` [Compound 14], the values for the IC50 in data set [1] (setting [3]) and in data set [2] (setting [5]) were 1.3 µM and 1.9 µM, respectively. The Selectivity in data set [2] (setting [8]) was found to be 0.7.

`O=C1CC(=O)N(C2CCCCC2)C(=O)N1CCc1ccc(Cl)cc1` [Compound 1, N-(4-chlorophenethyl)-N′-cyclohexyl-pyrimidine-2,4,6-(1H,3H,5H)-trione] registered a melting point of 146 to 148 °C. For the same molecule, in data set [1] (setting [3]), the IC50 came out at 38.8 µM. In addition, the IC50 in data set [1] (setting [4]) was determined as 38.8 µM. Moreover, the IC50 in data set [2] (setting [5]) was determined as 1.1 µM. Further, in data set [2] (setting [6]), the IC50 was 1.1 µM. In data set [2] (setting [7]), the Selectivity came out at 35. In addition, the Selectivity in data set [2] (setting [8]) is given as 35.1.

With `O=C1CC(=O)N(CC2CCCCC2)C(=O)N1CCc1cccc(Cl)c1` [Compound 109], the values for the IC50 in data set [1] (setting [9]) and in data set [2] (setting [10]) were 44.6 µM and 1.5 µM, respectively. In data set [2] (setting [11]), the Selectivity turned out to be 30.5.

In the case of `O=C1CC(=O)N(C2CCCCC2)C(=O)N1CCc1ccccc1Cl` [Compound 76], the IC50 amounted to 44.5 µM in data set [1] (setting [12]) and 5.2 µM in data set [2] (setting [13]). For the same molecule, the Selectivity in data set [2] (setting [14]) came to 7.7.

Take `Cc1cccc(CCN2C(=O)CC(=O)N(C3CCCCCC3)C2=O)c1` [Compound 93]: the IC50 was 30.7 µM in data set [1] (setting [9]) and 13.2 µM in data set [2] (setting [10]). Moreover, the Selectivity in data set [2] (setting [11]) is recorded as 2.3.

The molecule `Cc1cccc(CCN2C(=O)CC(=O)N(C3CCCCC3)C2=O)c1` [Compound 4, N-cyclohexyl-N′-(3-methylphenethyl)-pyrimidine-2,4,6-(1H,3H,5H)-trione] registered a melting point of 182 to 183 °C. Moreover, in data set [1] (setting [4]), the IC50 came out at 77.1 µM. The IC50 in data set [1] (setting [12]) stood at 77.1 µM. Further, in data set [2] (setting [6]), the IC50 was 2.2 µM. In addition, the IC50 in data set [2] (setting [13]) was 2.2 µM. Also, in data set [2] (setting [7]), the Selectivity stood at 35. Moreover, the Selectivity in data set [2] (setting [14]) stood at 35.4.

Turning to `O=C1CC(=O)N(CCCc2ccccc2)C(=O)N1CCCCc1ccccc1` [Compound 49], the IC50 in data set [1] (setting [3]) came to 2.6 µM; in data set [2] (first library, FLIPR, HEK293, value (±SD), read-out: IC50 (μM) CaV1.3) it was 1.3 µM. Moreover, the Selectivity in data set [2] (setting [8]) amounted to 2.0.

`O=C1CC(=O)N([C@@H]2C[C@@H]3CC[C@H]2C3)C(=O)N1CCc1cccc(Cl)c1` (racemic) [Compound 9, N-(3-chlorophenethyl)-N′-(+)-endo-norbornyl-pyrimidine-2,4,6-(1H,3H,5H)-trione]: the IC50 came to 20.1 µM in data set [1] (setting [4]); 20.1 µM in data set [1] (setting [9]); 0.8 µM in data set [2] (Table 4, 12 concentration points (0.1 nM~100 μM) in duplicate, read-out: IC50 (μM) Cav1.3); 0.8 µM in data set [2] (read-out: IC50 with Cav1.3); 0.8 µM in data set [2] (setting [15]).

For `O=C1CC(=O)N(CCc2cccc(F)c2)C(=O)N1CCc1ccc(Cl)cc1` [Compound 19], the IC50 in data set [1] (setting [3]) was 2.8 µM; in data set [2] (setting [5]), 1.9 µM. Further, the Selectivity in data set [2] (setting [8]) was 1.5.

Turning to `O=C1CC(=O)N(C2CCCCC2)C(=O)N1CCc1ccc(F)cc1` [Compound 68], the IC50 in data set [1] (setting [3]) was 166 µM; in data set [2] (setting [5]) it was 9.4 µM. The Selectivity in data set [2] (setting [8]) stood at 17.7.

Take `O=C1CC(=O)N(C2CC2)C(=O)N1CCc1cccc(Cl)c1` [Compound 101]: the IC50 in data set [1] stood at 5.4 µM; in data set [2] (setting [10]), 26.8 µM. Moreover, the Selectivity in data set [2] (setting [11]) was found to be 0.2.

Turning to `O=C1CC(=O)N(CCc2ccc3ccccc3c2)C(=O)N1CCc1ccc(Cl)cc1` [Compound 33], the IC50 came to 1.4 µM in data set [1] and 1.1 µM in data set [2] (setting [5]). In addition, the Selectivity in data set [2] (setting [8]) is 1.2.

For `O=C1CC(=O)N(CCc2ccc(Cl)cc2)C(=O)N1CCCc1ccccc1` [Compound 27], the IC50 was determined as 2.1 µM in data set [1] (setting [3]) and 1.1 µM in data set [2] (setting [5]). For the same molecule, in data set [2] (setting [8]), the Selectivity amounted to 1.9.
